Consider 3 compounds from patent US11052043B2, “Sustained-release injectable formulation” (YISSUM RESEARCH DEVELOPMENT COMPANY OF THE HEBREW …, priority 2011, dated 2021).

Converted amounts (≈) assume the structure as drawn.

For data set [1] the following is noted: cited from earlier work.
The nature of data set [2]: Minimum inhibitory concentration (MIC) of amoxicillin. As to conditions: in vitro MIC multiplied by a factor of 4. The data set is classed as cell-based.
The conditions of data set [3]: cited from earlier work. This is another data set of the same source.

In the case of `C=CC1=C(C(=O)O)N2C(=O)[C@@H](NC(=O)/C(=N\O)c3csc(N)n3)[C@H]2SC1` [cefdinir], in data set [1] (30° C.), the solubility of cefdinir is reported as 0.43 % (w/v).

In the case of `CCN1CCN(c2cc3c(cc2F)c(=O)c(C(=O)O)cn3C2CC2)CC1` [enrofloxacin], the solubility of enrofloxacin in data set [1] (25° C.) is on record as 0.25 % (w/v). As for `CC1(C)S[C@@H]2[C@H](NC(=O)[C@H](N)c3ccc(O)cc3)C(=O)N2[C@H]1C(=O)O` [amoxicillin], the “in vivo minimum inhibitory concentration (MIC) as set” value in data set [2] stood at 0.4 µg/mL. The “MIC value determined in vitro” value in data set [3] was 0.1 µg/mL (≈ 0.274 µM).
